# Laboratory results reported in patent US20150056186A1, “COMBINATION THERAPY OF A TYPE II ANTI-CD20 ANTIBODY WITH AN ANTI-BCL-2 ACTIVE AGENT” (Hoffmann-La Roche Inc., priority 2007, published 2015).
# Columns and labels:
# [1] = target: T1, CD20 on Raji cells (ATCC-No. CCL-86) (Homo sapiens, UniProt P11836); assay: Ratio of the binding capacities to CD20 on Raji cells compared to rituximab (direct immunofluorescence, Cy5, FACSArray); details: Cy5-conjugated antibodies, MFI at EC50, corrected for Cy5-labeling ratio
# T1 construct: generated by direct immunofluorescence using the Burkitt's lymphoma cell line Raji (ATCC-No. CCL-86); host or cells: Raji cells
# T1 sequence (P11836 1-297): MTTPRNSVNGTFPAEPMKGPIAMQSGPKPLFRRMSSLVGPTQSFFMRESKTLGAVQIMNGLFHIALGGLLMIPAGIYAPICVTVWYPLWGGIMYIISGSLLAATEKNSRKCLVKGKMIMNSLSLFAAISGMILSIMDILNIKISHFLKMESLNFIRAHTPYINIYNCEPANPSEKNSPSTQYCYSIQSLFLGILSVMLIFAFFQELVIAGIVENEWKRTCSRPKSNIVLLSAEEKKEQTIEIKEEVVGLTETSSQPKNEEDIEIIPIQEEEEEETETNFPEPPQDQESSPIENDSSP
# Procedure: MFI is the mean fluorescent intensity. The “Cy5-labeling ratio” as used herein means the number of Cy5-label molecules per molecule antibody.
# Raji cells (ATCC-No. CCL-86) were maintained in culture in RPMI-1640 medium (PanBiotech GmbH, Cat.-No. PO4-18500) containing 10% FCS (Gibco, Cat.-No. 10500-064). […] 5*10^5 cells per sample were stained for 30 min at 4° C. Afterwards, cells were washed in culture medium. Propidium iodide (PI) staining was used to exclude dead cells.
# Then the ratio of the binding capacities to CD20 on Raji cells (ATCC-No. CCL-86) is calculated according to the following formula: […]
# [2] = tested on: Z138 human B-Cell Non-Hodgkin-lymphoma (NHL) cells; assay: Tumor growth inhibition study in vivo, Z138 MCL xenografts in SCID beige mice; details: 10 mg/kg i.v. q7d
# Text: Z138 human B-Cell Non-Hodgkin-lymphoma (NHL) cells were originally obtained from Glycart (Mantle cell lymphoma-MCL). […] Passage 2 was used for transplantation.
# Animal treatment started at day of randomisation, 14 days after s.c. cell transplantation.
# Therefore s.c. xenografts models in SCID beige mice are not appropriate for mimicking human ADCC mediated effect with glycoengineered modified antibodies.
Substance,Ratio of the binding capacities to CD20 on Raji cells compared to rituximab [1],"Antitumor activity, later outcome [2]",Difference in antitumor activity between wt and glycoengineered versions [2],Antitumor activity at time of control termination ([2]; 19 days after treatment initiation)
B-HH6-B-KV1: Type II anti-CD20 antibody (humanized B-Ly1 antibody) of Example 2; FIG. 2 legend calls it B-HH6-B-KV1 GE,reduces binding capacity compared to rituximab,–,–,–
"B-HH6-B-KV1 wt: Type II anti-CD20 antibody, humanized B-Ly1 B-HH6-B-KV1 wildtype (non-glycoengineered)",–,most of Z138 tumor xenografts showed complete remission,No significant differences,all antibody tumors regressed
